This is an account of results in US8426408B2, “Pyrimidine inhibitors of kinases” (AbbVie Inc., priority 2009, dated 2013).

A value given as a limit tells only on which side of the number the result lay.

One assay deals with KDR (Homo sapiens, UniProt P35968). In words: KDR cellular assay (KDR receptor phosphorylation ELISA). The class given is cell-based. The arrangement: expressed in transfected cells; host or cells: 3T3 (embryonic mouse) cells. As to conditions: KDR transfected 3T3 (embryonic mouse) cells, VEGF stimulated; read-out: IC50 inhibition of KDR phosphorylation. A digest of the protocol:
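Phospho-KDR measured by capture ELISA (anti-KDR coat, biotinylated detection, streptavidin-HRP, 450 nm) in lysates of KDR-expressing 3T3 mouse fibroblasts. Cells saw compound 20 min at 37° C before 10 min VEGF challenge (100 ng/ml solution); IC50 from non-linear regression of half-log dose series.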

A further assay has as its target T1, Aurora A (Homo sapiens, UniProt O14965).
T1 sequence (O14965 1-403): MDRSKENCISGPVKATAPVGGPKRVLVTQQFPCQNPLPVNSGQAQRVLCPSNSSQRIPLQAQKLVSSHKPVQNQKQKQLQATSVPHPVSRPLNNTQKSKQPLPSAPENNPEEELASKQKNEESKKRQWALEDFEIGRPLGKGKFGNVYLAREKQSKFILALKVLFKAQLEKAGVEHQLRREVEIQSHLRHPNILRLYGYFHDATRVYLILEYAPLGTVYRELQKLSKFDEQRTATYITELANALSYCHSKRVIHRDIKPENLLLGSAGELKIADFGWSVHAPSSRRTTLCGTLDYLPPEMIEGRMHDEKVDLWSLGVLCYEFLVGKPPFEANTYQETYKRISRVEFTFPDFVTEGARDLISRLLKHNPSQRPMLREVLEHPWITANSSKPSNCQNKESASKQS
In words: Aurora A enzyme inhibition (time-resolved fluorescence, STK substrate-2). The assay is classed as biochemical. Conditions: 1 mM ATP. The gist of the method:
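Phosphorylation of biotinylated STK substrate-2 at 1 mM ATP, 1 h, Hepes buffer pH 7.4 (MgCl2, sodium orthovanadate, Triton X-100). After EDTA quench, 665/615 nm time-resolved fluorescence ratio read via europium anti-phospho antibody and SA-XL665; IC50 from exponential fit versus inhibitor concentration.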

The next assay has as its target T2, Aurora B (Homo sapiens, UniProt Q96GD4).
T2 construct: Active Aurora B enzyme (recombinant residues 1-344)
Put plainly: Aurora B enzyme inhibition (time-resolved fluorescence, histone H3 peptide). The assay is classed as biochemical. As to conditions: 1 mM ATP. A digest of the protocol:
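IC50s came from an exponential fit of inhibition against inhibitor concentration, with phosphorylation read as the 665/615 nm time-resolved fluorescence ratio after EDTA stop using Eu-anti-phospho-H3 and SA-APC. The 1 h reaction used Aurora B 1-344 plus GST-INCENP, biotin-histone H3 1-21 peptide and 1 mM ATP in pH 7.4 HEPES buffer.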

T2 sequence (Q96GD4 whole entry, the tested form may be a part): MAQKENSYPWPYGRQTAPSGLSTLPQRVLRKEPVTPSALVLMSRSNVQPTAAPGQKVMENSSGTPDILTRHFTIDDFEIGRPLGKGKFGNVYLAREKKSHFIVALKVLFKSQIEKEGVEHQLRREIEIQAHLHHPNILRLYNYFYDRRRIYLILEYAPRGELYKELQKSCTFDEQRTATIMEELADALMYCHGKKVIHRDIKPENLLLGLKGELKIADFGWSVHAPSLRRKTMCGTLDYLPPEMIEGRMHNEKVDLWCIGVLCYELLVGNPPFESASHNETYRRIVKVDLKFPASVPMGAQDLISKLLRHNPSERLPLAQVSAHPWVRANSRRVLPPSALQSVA
T2 sequence (Q9NQS7 826-918 partner limits assumed): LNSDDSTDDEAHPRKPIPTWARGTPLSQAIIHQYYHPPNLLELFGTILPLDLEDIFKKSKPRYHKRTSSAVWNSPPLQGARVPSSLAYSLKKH
Sequence of KDR (P35968 20-1356): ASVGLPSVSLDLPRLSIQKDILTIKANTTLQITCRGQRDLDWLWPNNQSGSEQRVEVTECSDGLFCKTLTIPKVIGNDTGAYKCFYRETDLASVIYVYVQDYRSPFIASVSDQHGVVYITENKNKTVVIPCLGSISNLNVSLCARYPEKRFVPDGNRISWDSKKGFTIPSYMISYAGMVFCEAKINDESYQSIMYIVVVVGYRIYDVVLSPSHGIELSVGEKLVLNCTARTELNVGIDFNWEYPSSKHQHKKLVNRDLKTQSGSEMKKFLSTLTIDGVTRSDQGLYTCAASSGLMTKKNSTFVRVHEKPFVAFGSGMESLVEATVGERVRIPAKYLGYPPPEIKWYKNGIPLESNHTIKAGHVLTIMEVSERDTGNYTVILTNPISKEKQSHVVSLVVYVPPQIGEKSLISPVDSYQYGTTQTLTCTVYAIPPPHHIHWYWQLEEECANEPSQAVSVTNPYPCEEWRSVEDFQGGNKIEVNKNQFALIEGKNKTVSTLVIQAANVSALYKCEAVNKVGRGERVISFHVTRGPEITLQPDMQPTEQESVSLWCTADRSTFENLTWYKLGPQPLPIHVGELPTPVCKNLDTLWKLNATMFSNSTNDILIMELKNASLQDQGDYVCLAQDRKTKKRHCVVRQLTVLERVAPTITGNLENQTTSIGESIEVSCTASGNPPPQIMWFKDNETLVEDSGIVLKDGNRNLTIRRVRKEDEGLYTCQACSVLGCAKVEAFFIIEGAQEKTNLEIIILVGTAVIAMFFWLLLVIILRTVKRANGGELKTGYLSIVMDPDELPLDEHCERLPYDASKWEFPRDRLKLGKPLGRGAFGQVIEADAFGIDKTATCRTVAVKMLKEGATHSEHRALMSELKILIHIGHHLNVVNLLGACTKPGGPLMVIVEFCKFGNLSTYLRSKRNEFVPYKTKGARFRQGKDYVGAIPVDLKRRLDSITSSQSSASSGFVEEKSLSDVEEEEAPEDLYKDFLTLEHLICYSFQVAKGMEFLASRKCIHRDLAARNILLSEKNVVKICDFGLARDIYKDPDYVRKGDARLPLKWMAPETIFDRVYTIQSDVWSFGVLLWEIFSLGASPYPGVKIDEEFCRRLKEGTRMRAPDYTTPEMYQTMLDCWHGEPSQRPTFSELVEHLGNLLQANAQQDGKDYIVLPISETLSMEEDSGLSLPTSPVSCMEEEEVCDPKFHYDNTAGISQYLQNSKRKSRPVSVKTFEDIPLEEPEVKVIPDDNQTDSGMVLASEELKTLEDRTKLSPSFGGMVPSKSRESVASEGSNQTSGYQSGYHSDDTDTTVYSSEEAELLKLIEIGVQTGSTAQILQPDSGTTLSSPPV

For `CCn1cc(Nc2ncc(C(F)(F)F)c(N[C@@H]3[C@H]4CC[C@H](C4)[C@@H]3C(N)=O)n2)cn1.CCn1cc(Nc2ncc(C(F)(F)F)c(N[C@H]3[C@@H]4CC[C@@H](C4)[C@H]3C(N)=O)n2)cn1` (mixture of isomers) [Example 24, (1R,2S,3R,4S)-3-{[2-[(1-ethyl-1H-pyrazol-4-yl)amino]-5-(trifluoromethyl)pyrimidin-4-yl]amino}bicyclo[2.2.1]heptane-2-carboxamide and (1S,2R,3S,4R)-3-{[2-[(1-ethyl-1H-pyrazol-4-yl)amino]-5-(trifluoromethyl)pyrimidin-4-yl]amino}bicyclo[2.2.1]heptane-2-carboxamide], the half-maximal inhibitory concentration (IC50) at KDR is below 100 nM. For the same compound, the inhibition constant Ki on Aurora A and on Aurora B was below 100 nM each time.

Turning to `CN1CCC(Cn2cc(Nc3ncc(Cl)c(N[C@H]4[C@@H](C(N)=O)[C@@H]5C=C[C@H]4C5)n3)cn2)CC1` [Example 97, (1S,2S,3R,4R)-3-{[5-chloro-2-({1-[(1-methylpiperidin-4-yl)methyl]-1H-pyrazol-4-yl}amino)pyrimidin-4-yl]amino}bicyclo[2.2.1]hept-5-ene-2-carboxamide], on KDR, the IC50 was below 100 nM. Moreover, the inhibitory constant (Ki) on Aurora A and on Aurora B was below 100 nM in each case.

Turning to `CCn1cc(Nc2ncc(Cl)c(N[C@H]3[C@@H](C(N)=O)[C@@H]4C=C[C@H]3C4)n2)cn1` (racemic) [Example 30, (1S,2S,3R,4R)-3-({5-chloro-2-[(1-ethyl-1H-pyrazol-4-yl)amino]pyrimidin-4-yl}amino)bicyclo[2.2.1]hept-5-ene-2-carboxamide and (1R,2R,3S,4S)-3-({5-chloro-2-[(1-ethyl-1H-pyrazol-4-yl)amino]pyrimidin-4-yl}amino)bicyclo[2.2.1]hept-5-ene-2-carboxamide], the concentration for half-maximal inhibition (IC50) on KDR is below 100 nM. Also, the Ki on Aurora A and on Aurora B was below 100 nM throughout.

As for `CCn1cc(Nc2ncc([N+](=O)[O-])c(N[C@H]3[C@@H](C(N)=O)[C@@H]4C=C[C@H]3C4)n2)cn1` [Example 140, (1S,2S,3R,4R)-3-({2-[(1-ethyl-1H-pyrazol-4-yl)amino]-5-nitropyrimidin-4-yl}amino)bicyclo[2.2.1]hept-5-ene-2-carboxamide], the IC50 at KDR is 100 to 1000 nM. Moreover, the inhibition constant Ki on Aurora A and at Aurora B was below 100 nM each time.

On to `CCn1cc(Nc2ncc(Cl)c(NC3C4CCC(O4)C3C(N)=O)n2)cn1` (racemic) [Example 142, (1S,2R,3S,4R)-3-({5-chloro-2-[(1-ethyl-1H-pyrazol-4-yl)amino]pyrimidin-4-yl}amino)-7-oxabicyclo[2.2.1]heptane-2-carboxamide and (1R,2S,3R,4S)-3-({5-chloro-2-[(1-ethyl-1H-pyrazol-4-yl)amino]pyrimidin-4-yl}amino)-7-oxabicyclo[2.2.1]heptane-2-carboxamide], for which the half-maximal inhibitory concentration (IC50) at KDR lay within 100 to 1000 nM. Besides, the Ki at Aurora A and on Aurora B was below 100 nM each time.

For the compound `Cn1cc(Nc2ncc([N+](=O)[O-])c(N[C@H]3[C@@H](C(N)=O)[C@@H]4C=C[C@H]3C4)n2)cn1` [Example 139, (1S,2S,3R,4R)-3-({2-[(1-methyl-1H-pyrazol-4-yl)amino]-5-nitropyrimidin-4-yl}amino)bicyclo[2.2.1]hept-5-ene-2-carboxamide], on KDR, the half-maximal inhibitory concentration (IC50) lay in the range of 100 to 1000 nM. In addition, the inhibition constant Ki at Aurora A and at Aurora B was below 100 nM in each case.

Consider “(1S,2R)-2-{[5-chloro-2-({1-[2-(morpholin-4-yl)ethyl]-1H-pyrazol-4-yl}amino)pyrimidin-4-yl]amino}cyclopentanecarboxamide and (1R,2S)-2-{[5-chloro-2-({1-[2-(morpholin-4-yl)ethyl]-1H-pyrazol-4-yl}amino)pyrimidin-4-yl]amino}cyclopentanecarboxamide [Example 137]”, for which the IC50 on KDR is 100 to 1000 nM. Further, the inhibition constant (Ki) at Aurora A and on Aurora B was below 100 nM in each case.

With `CCn1cc(Nc2ncc(C(F)(F)F)c(N[C@H]3[C@@H](C(N)=O)C[C@H]4C[C@@H]3C4(C)C)n2)cn1` [Example 168, (1R,2R,3S,5R)-2-({2-[(1-ethyl-1H-pyrazol-4-yl)amino]-5-(trifluoromethyl)pyrimidin-4-yl}amino)-6,6-dimethylbicyclo[3.1.1]heptane-3-carboxamide], on KDR, the concentration for half-maximal inhibition (IC50) was 100 to 1000 nM. Moreover, the inhibition constant (Ki) on Aurora A and on Aurora B was below 100 nM each time.

For the compound `NC(=O)[C@@H]1[C@H](Nc2nc(Nc3cnn(Cc4ccccc4Cl)c3)ncc2Cl)[C@H]2C=C[C@@H]1C2` [Example 161, (1S,2S,3R,4R)-3-[(5-chloro-2-{[1-(2-chlorobenzyl)-1H-pyrazol-4-yl]amino}pyrimidin-4-yl)amino]bicyclo[2.2.1]hept-5-ene-2-carboxamide], on KDR, the IC50 was below 100 nM. In addition, the inhibitory constant (Ki) at Aurora A and on Aurora B was below 100 nM throughout.

For the compound `NC(=O)[C@@H]1[C@H](Nc2nc(Nc3cnn(-c4ccccc4)c3)ncc2Cl)[C@H]2C=C[C@@H]1C2` [Example 174, (1S,2S,3R,4R)-3-({5-chloro-2-[(1-phenyl-1H-pyrazol-4-yl)amino]pyrimidin-4-yl}amino)bicyclo[2.2.1]hept-5-ene-2-carboxamide], the IC50 at KDR was below 100 nM. The Ki on Aurora A and on Aurora B was below 100 nM each time.

With `NC(=O)[C@@H]1[C@H](Nc2nc(Nc3cnn(CC(=O)O)c3)ncc2Cl)[C@H]2C=C[C@@H]1C2` [Example 103, {4-[(4-{[(1R,2R,3S,4S)-3-carbamoylbicyclo[2.2.1]hept-5-ene-2-yl]amino}-5-chloropyrimidin-2-yl)amino]-1H-pyrazol-1-yl}acetic acid], the half-maximal inhibitory concentration (IC50) on KDR was in the range of 100 to 1000 nM. Besides, the Ki on Aurora A and at Aurora B was below 100 nM in each case.

For the compound `CCn1cc(Nc2ncc(Cl)c(N[C@@H]3[C@@H]4CC[C@@H](C4)[C@@H]3C(N)=O)n2)cn1.CCn1cc(Nc2ncc(Cl)c(N[C@H]3[C@H]4CC[C@H](C4)[C@H]3C(N)=O)n2)cn1` (mixture of isomers) [Example 114, (1R,2R,3S,4S)-3-({5-chloro-2-[(1-ethyl-1H-pyrazol-4-yl)amino]pyrimidin-4-yl}amino)bicyclo[2.2.1]heptane-2-carboxamide and (1S,2S,3R,4R)-3-({5-chloro-2-[(1-ethyl-1H-pyrazol-4-yl)amino]pyrimidin-4-yl}amino)bicyclo[2.2.1]heptane-2-carboxamide], at KDR, the IC50 is 100 to 1000 nM. Also, the Ki on Aurora A and at Aurora B was below 100 nM each time.

Consider `CC(C)CCn1cc(Nc2ncc(Cl)c(N[C@H]3[C@@H](C(N)=O)[C@@H]4C=C[C@H]3C4)n2)cn1` [Example 99, (1S,2S,3R,4R)-3-[(5-chloro-2-[1-(3-methylbutyl)-1H-pyrazol-4-yl]aminopyrimidin-4-yl)amino]bicyclo[2.2.1]hept-5-ene-2-carboxamide], for which the IC50 on KDR is below 100 nM. Further, the inhibitory constant (Ki) at Aurora A and at Aurora B was below 100 nM each time.

Regarding `CCn1cc(Nc2ncc(Br)c(N[C@@H]3[C@H](C(N)=O)[C@H]4C=C[C@@H]3C4)n2)cn1.CCn1cc(Nc2ncc(Br)c(N[C@H]3[C@@H](C(N)=O)[C@@H]4C=C[C@H]3C4)n2)cn1` (mixture of isomers) [Example 31, (1S,2S,3R,4R)-3-({5-bromo-2-[(1-ethyl-1H-pyrazol-4-yl)amino]pyrimidin-4-yl}amino)bicyclo[2.2.1]hept-5-ene-2-carboxamide and (1R,2R,3S,4S)-3-({5-bromo-2-[(1-ethyl-1H-pyrazol-4-yl)amino]pyrimidin-4-yl}amino)bicyclo[2.2.1]hept-5-ene-2-carboxamide], the IC50 on KDR was below 100 nM. Also, the inhibition constant (Ki) on Aurora A and at Aurora B was below 100 nM throughout.

As a reminder, the IC50 is the concentration needed to halve the response being measured. The Ki is the dissociation constant of the complex between target and ligand, obtained from inhibition or displacement.
